Test results: patent US20050113450A1, “Antibacterial agents” (priority 2002, published 2005)
≈ marks a conversion by molar mass, not a printed value.

Test system: SA 9218
Assay: MIC by standard agar dilution method
Format: cell-based
Conditions: Mueller Hinton agar, 10^4 to 10^5 cells per spot, incubated overnight at 35° C., lowest concentration that inhibits visible growth
Summary of the method: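 Agar dilution: two-fold compound dilutions mixed into molten Mueller Hinton agar, spots of ~10^4–10^5 cells from 0.5 McFarland suspension diluted 1:20 in TSB. Incubated overnight at 35 °C; MIC is lowest concentration inhibiting visible growth.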

| Compound | MIC | SA 9218 MIC |
| --- | --- | --- |
| CCCNC(c1cccc(C(=O)Nc2ccc(Cl)cc2C(=O)O)c1)c1cccc(S(C)(=O)=O)c1 (stereo not shown) | 32 µg/mL (≈ 63.9 µM) | – |
| C=Cc1ccc(C(=O)Nc2ccc(Br)cc2C(=O)O)cc1 | > 128 µg/mL | – |
| CSc1ccc(C(=O)Nc2ccc(Br)cc2C(=O)O)cc1 | 2 µg/mL (≈ 5.46 µM) | – |
| O=C(Nc1ccc(Br)cc1C(=O)O)c1ccc2c(c1)S(=O)(=O)c1ccccc1C2=O | 16 µg/mL (≈ 32.9 µM) | – |
| O=C(Nc1ccc(Br)cc1C(=O)O)c1ccc(-c2ccccc2)cc1 | 32 µg/mL (≈ 80.8 µM) | – |
| COc1ccc(C(=O)Nc2ccc(Br)cc2C(=O)O)cc1S(=O)(=O)Nc1ccc(Cl)c2ccccc12 | > 128 µg/mL | – |
| O=C(Nc1ccc(Br)cc1C(=O)O)c1ccc(OCCN2C(=O)c3ccccc3C2=O)cc1 | 64 µg/mL (≈ 126 µM) | – |
| COc1cc(Br)c(C(=O)Nc2ccc(Br)cc2C(=O)O)cc1OC | > 128 µg/mL | – |
| CS(=O)(=O)c1cccc(C(=NO)c2ccc(C(=O)Nc3ccc(Cl)cc3C(=O)O)cc2)c1 | 16 µg/mL (≈ 33.8 µM) | – |
| O=C(Nc1ccc(Cl)cc1C(=O)O)c1cccc(C(=NO)c2cccnc2)c1 | 4 µg/mL (≈ 10.1 µM) | – |
| COC(=O)CCCC(=O)c1ccc(NC(=O)c2cccc(S(=O)(=O)N3CCc4ccc(Cl)cc43)c2)c(C(=O)O)c1 | 64 µg/mL (≈ 109 µM) | – |
| O=Cc1ccc(C(=O)Nc2ccc(Br)cc2C(=O)O)cc1 | > 128 µg/mL | – |
| CS(=O)(=O)c1cccc(C(=O)c2cccc(C(=O)Nc3ccc(Cl)cc3C(=O)O)c2)c1 | 16 µg/mL (≈ 34.9 µM) | – |
| O=C(COc1ccc(Cl)cc1)c1ccc(C(=O)Nc2ccc(Cl)cc2C(=O)O)cc1 | 4 µg/mL (≈ 9 µM) | – |
| CCCC(Oc1cccc(C(=O)Nc2ccc(Br)cc2C(=O)O)c1)C(=O)OCC (stereo not shown) | 8 µg/mL (≈ 17.2 µM) | – |
| O=C(Nc1ccc(Br)cc1C(=O)O)c1cc(S(=O)(=O)N2CCN(c3cccc(C(F)(F)F)c3)CC2)ccc1Br | 8 µg/mL (≈ 11.6 µM) | – |
| CC(=O)NCCOc1ccc(C(=O)Nc2ccc(Br)cc2C(=O)O)cc1 | 64 µg/mL (≈ 152 µM) | – |

| Compound | MIC | SA 9218 MIC |
| --- | --- | --- |
| O=C(Nc1ccc(Cl)cc1C(=O)O)c1ccc(C(=O)c2c[nH]c3ccccc23)cc1 | 8 µg/mL (≈ 19.1 µM) | – |
| O=C(Nc1ccc(Cl)cc1C(=O)O)c1cccc(C(=NO)C2CCCO2)c1 (stereo not shown) | 16 µg/mL (≈ 41.2 µM) | – |
| O=C(O)c1cc(Br)ccc1NC(=O)c1cccc2c1C(=O)c1ccccc1-2 | > 128 µg/mL | – |
| COc1ccc(CCOc2ccc(C(=O)Nc3ccc(Br)cc3C(=O)O)cc2)cc1 | > 128 µg/mL | – |
| C=Cc1ccc(C(=O)Nc2ccc(C#N)cc2C(=O)O)cc1 | 8 µg/mL (≈ 27.4 µM) | – |
| CCNS(=O)(=O)c1cccc(C(=O)Nc2ccc(Br)cc2C(=O)O)c1 | 64 µg/mL (≈ 150 µM) | – |
| CCOCC(=NO)c1ccc(C(=O)Nc2ccc(Cl)cc2C(=O)O)cc1 | 64 µg/mL (≈ 170 µM) | – |
| O=C(Nc1ccc(Br)cc1C(=O)O)c1ccc(F)c(F)c1 | 32 µg/mL (≈ 89.9 µM) | – |
| O=C(Nc1ccc(Br)cc1C(=O)O)c1cccc(S(=O)(=O)N2CCc3ccc(Cl)cc32)c1 | 2 µg/mL (≈ 3.73 µM) | – |
| CCN(CC)C(=O)c1c(F)ccc(F)c1C(=O)Nc1ccc(C#N)cc1C(=O)O | > 128 µg/mL | – |
| CCN(CC)c1ccc(NS(=O)(=O)c2ccc(C(=O)Nc3ccc(Br)cc3C(=O)O)cc2)cc1 | 32 µg/mL (≈ 58.6 µM) | – |
| O=C(Nc1ccc(Br)cc1C(=O)O)c1cccc(O)c1 | 32 µg/mL (≈ 95.2 µM) | – |
| COc1ccc(C(=O)Nc2ccc(Br)cc2C(=O)O)cc1S(=O)(=O)Nc1ccc(N2CCOCC2)cc1 | 64 µg/mL (≈ 108 µM) | – |
| Cc1cccc(C(=O)Nc2ccc(C#N)cc2C(=O)O)c1 | 32 µg/mL (≈ 114 µM) | – |
| CCN(Cc1ccncc1)S(=O)(=O)c1ccc(C(=O)Nc2ccc(Br)cc2C(=O)O)cc1 | 32 µg/mL (≈ 61.7 µM) | – |
| C=CCOc1cccc(C(=O)Nc2ccc(Br)cc2C(=O)O)c1 | 8 µg/mL (≈ 21.3 µM) | – |
| O=C(Nc1ccc(Br)cc1C(=O)O)c1cccc(C(=NO)c2ccccc2)c1 [drawing 1035] | 0.5 µg/mL (≈ 1.14 µM) | – |

The remaining lines, values ahead:

| MIC | SA 9218 MIC | Compound |
| --- | --- | --- |
| 32 µg/mL (≈ 76.5 µM) | – | O=Cc1ccc(NC(=O)c2cccc(S(=O)(=O)N3CCOCC3)c2)c(C(=O)O)c1 [PHA-666124] |
| 16 µg/mL (≈ 27.2 µM) | – | CC(C)(C)c1ccc(-c2ccc(NC(=O)c3cccc(S(=O)(=O)N4CCc5cc(Cl)ccc54)c3)c(C(=O)O)c2)cc1 [PHA-563283] |
| 1 µg/mL (≈ 2.34 µM) | – | CC1CCC(C)N1S(=O)(=O)c1cccc(C(=O)Nc2ccc(C#N)cc2C(=O)O)c1 (stereo not shown) [PHA-569077] |
| 64 µg/mL (≈ 114 µM) | – | COc1cc(NC(=S)Nc2cccc(C(=O)Nc3ccc(Br)cc3C(=O)O)c2)cc(OC)c1OC [PHA-713406] |
| 0.5 µg/mL (≈ 1.02 µM) | – | CN(c1ccc(Cl)cc1)S(=O)(=O)c1cccc(C(=O)Nc2ccc([N+](=O)[O-])cc2C(=O)O)c1 [PNU-292379] |
| 1 µg/mL (≈ 1.84 µM) | – | O=C(Nc1ccc(Br)cc1C(=O)O)c1cccc(NS(=O)(=O)c2ccc(Cl)c(Cl)c2)c1 [PHA-713410] |
| 8 µg/mL (≈ 17.5 µM) | – | CC(C)CN(CC(C)C)S(=O)(=O)c1cccc(C(=O)Nc2ccc(C#N)cc2C(=O)O)c1 [PHA-571164] |
| 4 µg/mL (≈ 7.99 µM) | – | O=C(Nc1ccc(Br)cc1C(=O)O)c1ccc(S(=O)(=O)n2cnc3ccccc32)cc1 [PNU-283371] |
| 64 µg/mL (≈ 155 µM) | – | CN(CCC#N)S(=O)(=O)c1cccc(C(=O)Nc2ccc(C#N)cc2C(=O)O)c1 [PHA-571271] |
| – | 32 µg/mL | CC(C(O)c1ccccc1)N(C)S(=O)(=O)c1cccc(C(=O)Nc2ccc(C#N)cc2C(=O)O)c1 (stereo not shown) [PHA-571272] |
| 1 µg/mL (≈ 2.26 µM) | – | O=C(Nc1ccc(Br)cc1C(=O)O)c1cccc(CSc2ccccc2)c1 [PHA-501684] |
| 8 µg/mL (≈ 14.4 µM) | – | COc1ccc(C(=O)Nc2ccc(Br)cc2C(=O)O)cc1S(=O)(=O)N(C)c1ccc(Cl)cc1 [PNU-291570] |
| 8 µg/mL (≈ 14.1 µM) | – | CN(c1ccc(Cl)cc1)S(=O)(=O)c1cc(C(=O)Nc2ccc(Br)cc2C(=O)O)cc([N+](=O)[O-])c1 [PHA-515583] |
| 0.25 µg/mL (≈ 0.626 µM) | – | CON=C(c1ccccc1)c1cccc(C(=O)Nc2ccc(C#N)cc2C(=O)O)c1 [PHA-535549] |
| 8 µg/mL (≈ 16.5 µM) | – | O=C(CSc1ccccc1)Nc1cccc(C(=O)Nc2ccc(Br)cc2C(=O)O)c1 [PHA-708985] |
| 16 µg/mL (≈ 34.8 µM) | – | O=C(Cc1cccs1)Nc1cccc(C(=O)Nc2ccc(Br)cc2C(=O)O)c1 [PHA-708980] |
| 16 µg/mL (≈ 26.5 µM) | – | CN(c1ccc(Cl)cc1)S(=O)(=O)c1ccc(Br)c(C(=O)Nc2ccc(Br)cc2C(=O)O)c1 [PNU-291061] |
| 0.125 µg/mL (≈ 0.259 µM) | – | N#Cc1ccc(NC(=O)c2cccc(S(=O)(=O)N3CCc4cc(Cl)ccc43)c2)c(C(=O)O)c1 [PHA-524523, 2-({3-[(5-Chloro-2,3-dihydro-1H-indol-1-yl)sulfonyl]benzoyl}amino)-5-cyanobenzoic acid] |
| 16 µg/mL (≈ 37.3 µM) | – | CCCCN(CC)S(=O)(=O)c1cccc(C(=O)Nc2ccc(C#N)cc2C(=O)O)c1 [PHA-571197] |
| 128 µg/mL (≈ 279 µM) | – | O=C(Cc1cccs1)Nc1ccc(C(=O)Nc2ccc(Br)cc2C(=O)O)cc1 [PHA-713386] |
| 16 µg/mL (≈ 36.5 µM) | – | COC(=O)c1cccc(C(=O)c2ccc(C(=O)Nc3ccc(Cl)cc3C(=O)O)cc2)c1 [PHA-656883] |

| MIC | SA 9218 MIC | Compound |
| --- | --- | --- |
| 32 µg/mL (≈ 65.5 µM) | – | N#CCCN(Cc1ccccc1)S(=O)(=O)c1ccc(C(=O)Nc2ccc(C#N)cc2C(=O)O)cc1 [PHA-571246] |
| 8 µg/mL (≈ 18.7 µM) | – | CC1CCN(S(=O)(=O)c2cccc(C(=O)Nc3ccc(C#N)cc3C(=O)O)c2)CC1 [PHA-571273] |
| 8 µg/mL (≈ 19.2 µM) | – | O=C(Nc1ccc(Cl)cc1C(=O)O)c1cccc(C(=O)c2ccc(F)c(F)c2)c1 [PHA-656892] |
| 16 µg/mL (≈ 28.9 µM) | – | COc1c(C(=O)Nc2ccc(Br)cc2C(=O)O)cccc1S(=O)(=O)N(C)c1ccc(Cl)cc1 [PHA-735753] |
| 1 µg/mL (≈ 2.42 µM) | – | CC1CCCN1S(=O)(=O)c1cccc(C(=O)Nc2ccc(C#N)cc2C(=O)O)c1 (stereo not shown) [PHA-569064] |
| 0.5 µg/mL (≈ 1.29 µM) | – | N#Cc1ccc(NC(=O)c2cccc(SCc3ccccc3)c2)c(C(=O)O)c1 [PHA-630368] |
| 32 µg/mL (≈ 60.1 µM) | – | CC(=O)c1ccc(N2CCN(S(=O)(=O)c3cccc(C(=O)Nc4ccc(C#N)cc4C(=O)O)c3)CC2)cc1 [PHA-571172] |
| 2 µg/mL (≈ 3.63 µM) | – | O=C(Nc1ccc(-c2ccc(F)cc2)cc1C(=O)O)c1cccc(S(=O)(=O)N2CCc3cc(Cl)ccc32)c1 [PHA-563278] |
| 32 µg/mL (≈ 64.1 µM) | – | COc1ccc(C(=O)Nc2cccc(C(=O)Nc3ccc(Br)cc3C(=O)O)c2)c(OC)c1 [PHA-708984] |
| 8 µg/mL (≈ 14.4 µM) | – | COc1ccc(S(=O)(=O)N(C)c2ccc(Cl)cc2)cc1C(=O)Nc1ccc(Br)cc1C(=O)O [PNU-289815] |
| > 128 µg/mL | – | N#Cc1ccc(NC(=O)c2ccc(S(=O)(=O)N3CCOCC3)cc2)c(C(=O)O)c1 [PHA-571255] |
| 32 µg/mL (≈ 74 µM) | – | CC(=O)c1ccc(NC(=O)c2cccc(S(=O)(=O)N3CCOCC3)c2)c(C(=O)O)c1 [PHA-708923] |
| 64 µg/mL (≈ 124 µM) | – | O=C(Nc1ccc(Br)cc1C(=O)O)c1ccc(NC(=S)Nc2ccc([N+](=O)[O-])cc2)cc1 [PHA-713403] |
| > 128 µg/mL | – | O=C(Nc1ccc(I)cc1C(=O)O)c1ccc(F)cc1 [PNU-281164] |
| > 128 µg/mL | – | COc1ccc(-c2ccc(NC(=O)c3cccc(S(=O)(=O)N4CCOCC4)c3)c(C(=O)O)c2)cc1 [PHA-610941] |
| 1 µg/mL (≈ 2.48 µM) | – | N#Cc1ccc(NC(=O)c2cccc(Oc3cccc([N+](=O)[O-])c3)c2)c(C(=O)O)c1 [PHA-564218] |
| 0.125 µg/mL (≈ 0.263 µM) | – | COc1cccc2ccn(S(=O)(=O)c3cccc(C(=O)Nc4ccc(C#N)cc4C(=O)O)c3)c12 [PHA-568422] |
| 8 µg/mL (≈ 27 µM) | – | COc1cccc(C(=O)Nc2ccc(C#N)cc2C(=O)O)c1 [PHA-571151] |
| 1 µg/mL (≈ 2.41 µM) | – | N#Cc1ccc(NC(=S)c2cccc(S(=O)(=O)N3CCCC3)c2)c(C(=O)O)c1 [PHA-662431] |
| 32 µg/mL (≈ 62 µM) | – | CSc1cccc(NC(=S)Nc2cccc(C(=O)Nc3ccc(Br)cc3C(=O)O)c2)c1 [PHA-713407] |
| 1 µg/mL (≈ 2.04 µM) | – | O=C(Nc1ccc(Br)cc1C(=O)O)c1ccc(S(=O)(=O)Nc2ccccc2O)cc1 [PNU-291997] |
